Test results as given in patent publication US5726181A, “Formulations and compositions of poorly water soluble camptothecin derivatives” (BioNumerik Pharmaceuticals, Inc., priority 1995, dated 1998).
In brackets after ≈: the same amount, converted by molar mass. Entries after “also recorded” stand apart in the source; their conditions may differ. Like-named read-outs stand apart in the source and are kept apart here.

Columns and labels:
[1] = cited from earlier work
[2] = oral vs intravenous solution; cited from earlier work
[3] = Lactone form / chemical stability in formulation; type: physicochemical
human patients [4] = settings: cited from earlier work
[5] = cited from earlier work; remark: listed apart in the source
[6] = system: advanced gastrointestinal cancer; settings: cited from earlier work
[7] = system: human patients with cancer; settings: Phase I and Phase II human trials; cited from earlier work
human patients [8] = settings: cited from earlier work; remark: listed apart in the source
malignant melanoma = settings: cited from earlier work
[9] = greater than carboxylate form; cited from earlier work
[10] = animals; cited from earlier work
DNA strand breaks = settings: cited from earlier work
L1210 cells = settings: cited from earlier work
Topoisomerase I [11] = settings: purified from calf thymus; cited from earlier work
Topoisomerase I [12] = settings: purified from human colon carcinoma cells; cited from earlier work
mice = settings: more toxic than SCPT; cited from earlier work
[13] = Solubility of camptothecin in various solvents; type: physicochemical; settings: for solubility: read-out: Solubility, Concentration
topoisomerase II = settings: cited from earlier work
[14] = system: topoisomerase I-DNA cleavable complex; settings: cited from earlier work
[15] = 15 mg/m^2 × 5, 9 patients treated
[16] = 17 mg/m^2 × 5, 5 patients treated
[17] = 20 mg/m^2 × 5, 10 patients treated
[18] = 5-Day course (27 patients), 4 wks
[19] = 5-Day course (27 patients), 8 wks
[20] = 5-Day course (27 patients), 12 wks
[21] = single dose 110 mg/m^2, 2 patients treated
[22] = single dose 120 mg/m^2, 7 patients treated
[23] = single dose 180 mg/m^2, 9 patients treated
[24] = single-dose method (34 patients), 3 wks
[25] = single-dose method (34 patients), 6 wks
[26] = single-dose method (34 patients), 9 wks
[27] = single-dose method (34 patients), 12 wks
[28] = 90-360 mg/m^2 every 2 weeks, fifteen patients

## CCC1(O)C(=O)OCc2c1cc1n(c2=O)Cc2cc3cc4c(cc3nc2-1)OCO4 (stereo not drawn) [10,11-Methylenedioxy camptothecin, 10,11-methylenedioxy camptothecin]
[1]; water
  Water solubility: less than 5 micrograms per milliliter of water

## COc1cc([C@@H]2c3cc4c(cc3[C@@H](O[C@@H]3O[C@@H]5CO[C@@H](C)O[C@H]5[C@H](O)[C@H]3O)[C@H]3COC(=O)[C@H]23)OCO4)cc(OC)c1O [etoposide]
[2]
  Bioavailability following oral administration: substantially equivalent to that achieved by intravenous administration

## CCc1c2c(nc3ccc(O)cc13)-c1cc3c(c(=O)n1C2)COC(=O)[C@]3(O)CC [7-ethyl-10-hydroxy camptothecin]
[1]; water
  Water solubility: less than 5 micrograms per milliliter of water

## CCC1(O)C(=O)OCc2c1cc1n(c2=O)Cc2cc3cc4c(cc3nc2-1)OCCO4 (stereo not drawn) [10,11-ethylenedioxy-camptothecin, 10,11-ethylenedioxy camptothecin]
[1]; water
  Water solubility: less than 5 micrograms per milliliter of water

## CCc1c2c(nc3ccccc13)-c1cc3c(c(=O)n1C2)COC(=O)[C@]3(O)CC [7-ethyl camptothecin]
[1]; water
  Water solubility: less than 5 micrograms per milliliter of water

## CN1CCCC1=O [NMP, N-methyl-2-pyrrolidinone]
[3]
  Chemical reactivity of NMP with HLCD: inert with respect to undesirable chemical reactions with HLCD; also recorded: chemically inert with respect to poorly water soluble camptothecins

## CC[C@@](O)(C(=O)O)c1cc2n(c(=O)c1CO)Cc1cc3ccccc3nc1-2 [SCPT]
Human patients [4]; 20 to 30 mg/m^2
  Bladder toxicity, dose limiting: dose limiting in three patients
Human patients [4]; 44 and 30 mg/m^2
  Bladder toxicity, additional patients: two additional patients
Human patients [4]; daily treatment, total dose of 100 mg/m^2
  Leukopenia, incidence: four of six patients
Human patients [4]; daily vs weekly treatment
  Leukopenia, duration: more prolonged after daily treatment than after weekly treatment
Human patients [4]; dose-limiting toxic effect
  Leukopenia: Reversible leukopenia was the major dose-limiting toxic effect
Human patients [4]; eight patients with measurable disease, 5-day courses at dose levels associated with toxicity
  Clinical benefit: No clinical benefit was observed
Human patients [4]; weekly courses, evaluable patients
  Clinical responses: two of ten patients
[5]; 24 hours after SCPT, once daily×5, 6.5-20 mg/m^2/day
  Plasma camptothecin levels, relation to dose: plasma camptothecin levels have little relation to the dose given
[5]; patients with obvious renal disease excluded
  Severe toxic effects: Severe toxic effects including cystitis occurred
[6]; 11 mg/m^2 × 5, 2 patients treated
  No. of patients with Cystitis: 1 patients
[6]; [15]
  No. of patients with Cystitis: 4 patients
  No. of patients with Diarrhea: 1 patients
[6]; [16]
  No. of patients with Cystitis: 2 patients
  No. of patients with Diarrhea: 4 patients
[6]; [17]
  No. of patients with Cystitis: 6 patients
  No. of patients with Diarrhea: 4 patients
[6]; 22 mg/m^2 × 5, 1 patient treated
  No. of patients with Diarrhea: 1 patients
[6]; 3 months, 61 patients
  Improvement at 3 months: none showed improvement at 3 months
[6]; [18]
  Objective Responses: Improved: 1 patients
  Objective Responses: Stable: 12 patients
  Objective Responses: Worse: 14 patients
[6]; [19]
  Objective Responses: Stable: 7 patients
  Objective Responses: Worse: 20 patients
[6]; [20]
  Objective Responses: Stable: 6 patients
  Objective Responses: Worse: 21 patients
[6]; 5-Day course, P < 0.05
  Cystitis (% of 27 patients): 48%
[6]; Single dose
  Cystitis (% of 34 patients): 24%
[6]; after 2 months (8 or 9 weeks), 61 patients
  Partial objective improvement: only two of their 61 patients
[6]; at 3 wks only
  Patients with 25%-50% response: 3 patients
[6]; higher doses
  Diarrhea, severity and persistence: could be quite severe to the point of fecal incontinence and persistent for as long as 4 weeks
[6]; in vivo
  Onset of cystitis after treatment: 7 to 10 days
[6]; prolonged (5-day) vs single-dose schedule at a given total dose
  Severity of toxicity by schedule: more prolonged schedule produced more severe toxicity at a given total dose level
[6]; single dose 90 mg/m^2, 10 patients treated
  No. of patients with Cystitis: 1 patients
[6]; single dose 100 mg/m^2, 6 patients treated
  No. of patients with Cystitis: 2 patients
[6]; [21]
  No. of patients with Cystitis: 1 patients
  No. of patients with Diarrhea: 1 patients
[6]; [22]
  No. of patients with Cystitis: 2 patients
  No. of patients with Diarrhea: 4 patients
[6]; [23]
  No. of patients with Cystitis: 3 patients
  No. of patients with Diarrhea: 2 patients
[6]; [24]
  Objective Responses: Improved: 4 patients
  Objective Responses: Stable: 17 patients
  Objective Responses: Worse: 13 patients
[6]; [25]
  Objective Responses: Improved: 2 patients
  Objective Responses: Stable: 1i
  Objective Responses: Worse: 21 patients
[6]; [26]
  Objective Responses: Improved: 2 patients
  Objective Responses: Stable: 8 patients
  Objective Responses: Worse: 24 patients
[6]; [27]
  Objective Responses: Stable: 6 patients
  Objective Responses: Worse: 28 patients
[7]
  Antitumor activity in early trials: lack of consistent antitumor activity
  Toxicity in early trials: unpredictable and severe myelosuppression,gastrointestinal toxicity, hemorrhagic cystitis, and alopecia
Human patients [8]; 5 patients with impaired urinary excretion excluded, i.v., 2880 min
  Mean urine recovery of camptothecin, excluding patients with impaired urinary excretion: 22.8%
Human patients [8]; after i.v. drug administration
  Urinary appearance of unmetabolized camptothecin: unmetabolized camptothecin in high concentrations rapidly appeared in the urine
Human patients [8]; first 48 hours, i.v.
  Mean urine recovery of camptothecin: 17.4%
  Urine recovery of camptothecin (range): 3.6-38.9%
Human patients [8]; i.v.
  Time course of urinary drug excretion: most of the drug excretion occurring in the initial 12 hours
Human patients [8]; moderately dehydrated patients
  Sterile hemorrhagic cystitis: 3 patients
Malignant melanoma; [28]
  50% or greater decrease in tumor diameter: None of the patients had a 50% or greater decrease in tumor diameter
  Transient tumor regression: Less pronounced transient tumor regression was noted in three patients
Malignant melanoma; 90-360 mg/m^2 every 2 weeks
  Disease in remaining patients: no change or progression in their disease
Malignant melanoma; fifteen patients
  Alopecia: 8 patients
  Diarrhea: 3 patients
  Hemorrhagic cystitis: 1 patients
  Myelosuppression: 11 patients
  Nausea and vomiting: 9 patients

## CC[C@@]1(O)C(=O)OCc2c1cc1n(c2=O)Cc2cc3ccccc3nc2-1 [Camptothecin, camptothecin]
Human patients [4]; human, in vivo
  Renal excretion: excreted unchanged by the kidneys
[9]
  Anti-tumor activity of lactone relative to carboxylate form: greater than 10 fold
[6]; in vivo
  Clinical value in gastrointestinal cancer (conclusion): a drug of protean and unpredictable toxicity that has no clinical value in the management of gastrointestinal cancer
[10]
  Transport into bile: extremely active transport of camptothecin into bile
[7]
  Toxicity in early trials: unpredictable myelosuppression and hemorrhagic cystitis
DNA strand breaks
  Protein-associated DNA single-strand breaks: induces protein-associated DNA single-strand breaks
DNA strand breaks; in vitro cells
  Protein linkage of DNA strand breaks: Virtually all of the DNA strand breaks observed in vitro cells treated with camptothecin are protein linked
L1210 cells
  Protein-free DNA breaks: an increase in unexplained protein-free breaks
Topoisomerase I [11]
  Inhibition of topoisomerase I: inhibited
Topoisomerase I [12]
  Inhibition of topoisomerase I: inhibited
[1]; lactone form, pH of 2 to 6
  Water solubility: less than 5 micrograms in one milliliter o
mice
  Toxicity of lactone form relative to SCPT: 10 fold
[13]; N-Methyl-2-pyrrolidinone (NMP)
  Solubility, Concentration: 15000 to 20000 µg/mL
[13]; benzyl alcohol, organic solvent or mixture, Benzyl alcohol
  solubility: 1670 µg/mL (≈ 4810 µM)
[13]; dimethylacetamide, organic solvent or mixture, Dimethylacetamide
  solubility: 5000 µg/mL (≈ 14400 µM)
[13]; dimethylisosorbide, organic solvent or mixture, Dimethylisosorbide
  solubility: 928 µg/mL (≈ 2660 µM)
[13]; ethanol, organic solvent or mixture, Ethanol
  solubility: 51 µg/mL (≈ 146 µM)
[13]; milli-q water
  solubility: 0.2 µg/mL (≈ 0.574 µM)
[13]; n-methyl-2-pyrrolidinone (nmp), organic solvent or mixture, N-Methyl-2-pyrrolidinone (NMP)
  solubility: > 15000 µg/mL
[13]; peg 300, organic solvent or mixture, PEG 300
  solubility: 706 µg/mL (≈ 2030 µM)
[13]; propylene glycol, organic solvent or mixture, Propylene glycol
  solubility: 281 µg/mL (≈ 807 µM)
Topoisomerase II
  Effect on topoisomerase II: no effect on topoisomerase II
[14]
  Stabilization of the topoisomerase I cleavable complex, reversibility: readily reversible
